Laboratory results reported in patent US10442791B2, “DNA-PK inhibitors” (Vertex Pharmaceuticals Incorporated, priority 2012, dated 2019).

Tests used:
Assay type in all cases: cell-based
DU4475 = experiment: Cell viability following irradiation (CellTiter-Glo), DU4475; conditions: DU4475 (Breast Cancer), viability at 6 days
Procedure: (§1) To evaluate the radiosensitizing effects of compounds of the invention in combination with ionizing radiation (IR), a broad panel of cell lines across multiple tumor types and genetic backgrounds were tested. Cells were incubated with DMSO or compound 578 for 30 minutes and then exposed to various doses of radiation (0, 0.5, 1, 2, 4, 6, 8, and 16 Gy). Cell viability was assessed at 6 days using CellTiter-Glo® (Promega, Inc).

H838 = experiment: Cell viability following irradiation (CellTiter-Glo), H838; conditions: H838 (Lung Cancer), viability at 6 days
Procedure: as §1

[1] = system: DNA-PK null SCID mouse cell line; experiment: Cell viability following irradiation (CellTiter-Glo), SCID; conditions: for EC50 IR: SCID (SCID Tumor, DNA-PK null), viability at 6 days
Procedure: as §1

SMCC7721 = experiment: Cell viability following irradiation (CellTiter-Glo), SMCC7721; conditions: SMCC7721 (Hepatocellular Carcinoma), viability at 6 days
Procedure: as §1

Miapaca2 = experiment: Cell viability following irradiation (CellTiter-Glo), Miapaca2; conditions: Miapaca2 (Pancreatic cancer), viability at 6 days
Procedure: as §1

DLD-1 = experiment: Cell viability following irradiation (CellTiter-Glo), DLD-1; conditions: DLD-1 (Colorectal Cancer), viability at 6 days
Procedure: as §1

A549 = experiment: Cell viability following irradiation (CellTiter-Glo), A549; conditions: A549 (Lung Cancer), viability at 6 days
Procedure: as §1

## CNC(=O)c1ccnc2c([C@H](C)CNc3cc(-c4cnc(C)nc4)ncn3)cccc12 [Compound 578, (S)—N-methyl-8-(1-((2′-methyl-[4,5′-bipyrimidin]-6-yl)amino)propan-2-yl)quinoline-4-carboxamide]
DU4475; compound 578 0.7 μM + IR
  EC50 IR: <0.5 Gy
DU4475; compound 578 2.1 μM + IR
  EC50 IR: <0.5 Gy
H838; compound 578 0.7 μM + IR
  EC50 IR: 0.6 Gy
H838; compound 578 2.1 μM + IR
  EC50 IR: <0.5 Gy
[1]; compound 578 0.7 μM + IR
  EC50 IR: 2.8 Gy
[1]; compound 578 2.1 μM + IR
  EC50 IR: 3.1 Gy
[1]; as a single agent or in combination with radiation, DNA-PK null SCID mouse cell line
  effect on cell viability: minimal effect on cell viability
SMCC7721; compound 578 0.7 μM + IR
  EC50 IR: 1.7 Gy
SMCC7721; compound 578 2.1 μM + IR
  EC50 IR: 0.6 Gy
Miapaca2; compound 578 0.7 μM + IR
  EC50 IR: 2.4 Gy
Miapaca2; compound 578 2.1 μM + IR
  EC50 IR: 1.9 Gy
DLD-1; compound 578 0.7 μM + IR
  EC50 IR: 0.6 Gy
DLD-1; compound 578 2.1 μM + IR
  EC50 IR: 0.7 Gy
A549; compound 578 0.7 μM + IR
  EC50 IR: 0.5 Gy
A549; compound 578 2.1 μM + IR
  EC50 IR: <0.5 Gy
